# Measured values: article PMC3781062 (PLoS ONE, 2013)
# Residue numbers refer to the chain shown, from its start. Several values for one entry are separate records, joined by “and”; a condition that tells them apart may be missing. Equal entries are not always repeated.
# What was measured:
# CYP1B1*3 = CYP1B1*3 (Homo sapiens, UniProt Q16678, form not given); test: Inhibition of EROD activity of CYP1B1 allelic variant co-expressed with CPR; type: biochemical; conditions: probe 7-ethoxyresorufin (EROD)
# Procedure: (§1) Construction of CYP1B1 and CPR expression plasmids has been described previously. The CYP1B1 alleles CYP1B1*1, CYP1B1*3 and CYP1B1*4 were co-expressed with CPR in E. coli JM109 cells and membranes prepared as described previously. P450 content was determined spectrophotometrically, and CPR activity estimated by cytochrome c reduction. […] Solubilised protein lysates or human liver microsomes were separated by SDS-PAGE, transferred onto Hybond-ECL nitrocellulose membranes (Amersham, UK) and probed with CYP1B1 (BD Gentest, Woburn, MA) and CPR antibodies, as previously described.
# (§2) EROD activity was determined as previously described, but modified in 96-well plate format with quadruplicate replicates, using a Fluoroskan fluorescence reader (Labsystems, Cambridge, UK). […] Calibration curves were constructed with authentic resorufin standards and linear regression analysis used to calculate the amount of resorufin formed in each test sample. Enzyme kinetics for CYP1B1-catalysed EROD activity were determined at substrate concentrations from 0.002 to 2 µM. Apparent Km and Vmax values were estimated by non-linear regression analysis (GraFit software program, UK) of the substrate concentration [S]-enzyme activity [V], fitting data to a Michaelis-Menten model.
# CYP1B1*1 = CYP1B1*1 (Homo sapiens, UniProt Q16678); test: as above; type: biochemical; conditions: IC50 against CYP1B1-dependent EROD activity, mean ± SD of triplicate determinations
# Procedure: as §1, §2
# CYP1B1*4 = target: T1, CYP1B1*4 (Homo sapiens, UniProt Q16678, L432V/N453S); test: as above; type: biochemical; conditions: mean ± SD of triplicate determinations, read-out: IC50 against CYP1B1-dependent EROD activity (converted)
# T1 construct: made in house; host or cells: E. coli JM109
# T1 sequence (Q16678 1-543 L432V/N453S): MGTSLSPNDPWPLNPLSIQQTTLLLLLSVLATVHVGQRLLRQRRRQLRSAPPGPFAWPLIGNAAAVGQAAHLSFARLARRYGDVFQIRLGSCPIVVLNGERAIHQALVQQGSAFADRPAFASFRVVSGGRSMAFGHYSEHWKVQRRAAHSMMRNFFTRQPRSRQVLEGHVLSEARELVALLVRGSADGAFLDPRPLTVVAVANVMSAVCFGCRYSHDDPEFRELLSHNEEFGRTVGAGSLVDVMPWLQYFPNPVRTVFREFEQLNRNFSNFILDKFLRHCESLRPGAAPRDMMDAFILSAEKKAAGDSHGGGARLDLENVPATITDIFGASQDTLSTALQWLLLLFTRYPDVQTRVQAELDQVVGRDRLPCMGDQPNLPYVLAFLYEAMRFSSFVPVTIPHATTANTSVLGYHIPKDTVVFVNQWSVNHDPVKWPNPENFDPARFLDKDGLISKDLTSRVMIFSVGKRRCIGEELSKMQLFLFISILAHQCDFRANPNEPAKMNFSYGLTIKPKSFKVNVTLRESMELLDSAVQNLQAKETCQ
# Procedure: as §1, §2
# CYP1B1 [1] = target: T2, CYP1B1 (Homo sapiens, UniProt Q16678, L432V); test: Inhibition of CYP1B1-dependent EROD activity, E. coli membranes co-expressing CYP1B1 and CPR; type: biochemical
# T2 construct: made in house; host or cells: E. coli JM109
# T2 sequence (Q16678 1-543 L432V): T1 sequence (Q16678 1-543 L432V/N453S) with S453N
# Procedure: as §2
# CHO-CPR cells = test: PUVA cytotoxicity, neutral red uptake assay
# Procedure: (§3) CHO cell lines stably over-expressing CYP1B1 and CPR were generated as previously described. CHO cells were maintained at 37°C/5% CO2 in Dulbecco’s Modified Eagle’s medium (DMEM) supplemented with 10% fetal bovine serum (FBS), 100 U/ml penicillin, 100 µg/ml streptomycin, 1 U/ml each of hypoxanthine and thymine (Invitrogen, Paisley-UK). Similar culture conditions, with the addition of G-418 (400 µg/ml), were used for CHO cells stably expressing CPR (CHO-CPR). CHO cells stably co-expressing CYP1B1 and CPR (CHO-1B1/CPR) were maintained at 37°C/5% CO2, but in hypoxanthine and thymine-free DMEM supplemented with 10% dialysed FBS and the appropriate selection (0.3 µM MTX and 400 µg/ml G-418). HaCaT keratinocytes were grown to 80% confluence in DMEM supplemented with 10% fetal bovine serum (FBS), 100 U/ml penicillin, 100 µg/ml streptomycin and 2 mM glutamine. Cells were harvested and microsomes prepared as described previously. HaCaT cell microsomes and microsomes from human skin biopsies obtained from peri-lesional skin from psoriasis patients, [13] were used to investigate functional CYP1B1 expression using EROD assays.
# (§4) To investigate CHO cell sensitivity to UVA and PUVA, actively dividing cells (10000 cells/well) were seeded in 96-well plates (Iwaki, Japan) in quadruplicates in 200 µl culture medium and allowed to grow for 18–20 h. Cells were irradiated at room temperature with a UVA source (2×6 ft Cosmolux 15500/100 W, 1.7 mW/cm^2 (320–400 nm; λmax = 365 nm), Germany) through a 4 mm thick window glass filter at multiple UVA doses (0, 1.5, 4.0 and 7.5 J/cm^2), monitoring irradiance with a Waldmann UV meter equipped with UVA detector. Control samples were kept in the dark under the same conditions. […] Control samples were pre-incubated with solvent and kept in the dark under the same conditions. After each treatment, fresh culture medium was added and cells returned to an incubator at 37°C/5%CO2 for 24 h. Cell viability was assessed using neutral red uptake assays; quadruplicate replicates of each treatment were performed, and each experiment repeated twice. PUVA cytotoxicity data was assessed by non-linear regression analysis for dose-response curves (IC50) fitting (GraFit software program, UK) and unpaired Student’s t-test (Statview 4.1 software).
# CHO cells = test: PUVA cytotoxicity, neutral red uptake assay
# Procedure: as §3, §4
# CYP1B1 [2] = conditions: α-naphthoflavone 5 µM; recombinant CYP1B1
# Procedure: (§5) After 3 min 37°C pre-incubation, reactions were initiated by 40 µl 5 mM NADPH containing 30 mM glutathione (GSH) in 50 mM PB (pH 7.4). Reactions were incubated for 10 min in a shaking water bath at 37°C, terminated by the addition of 100 µl ice-cold methanol containing 3% perchloric acid, and placed on ice for 10 min. Zero-time controls were terminated before the addition of P450 membranes; no-NADPH control reactions were initiated with 20 µl 50 mM PB (pH 7.4) containing 30 mM GSH. Samples were vortexed for 1 min, centrifuged at 12 000 rpm for 5 min, supernatants collected and analysed by HPLC analysis [28].
# human liver microsomes = test: 8-MOP metabolism (substrate depletion) in human liver microsomes; type: in vitro ADME; conditions: α-naphthoflavone 5 µM
# Procedure: as §5
# CYP1A1 = target: T3, CYP1A1 (Homo sapiens, UniProt P04798); conditions: α-naphthoflavone 5 µM; recombinant CYP1A1
# T3 sequence (P04798 1-512): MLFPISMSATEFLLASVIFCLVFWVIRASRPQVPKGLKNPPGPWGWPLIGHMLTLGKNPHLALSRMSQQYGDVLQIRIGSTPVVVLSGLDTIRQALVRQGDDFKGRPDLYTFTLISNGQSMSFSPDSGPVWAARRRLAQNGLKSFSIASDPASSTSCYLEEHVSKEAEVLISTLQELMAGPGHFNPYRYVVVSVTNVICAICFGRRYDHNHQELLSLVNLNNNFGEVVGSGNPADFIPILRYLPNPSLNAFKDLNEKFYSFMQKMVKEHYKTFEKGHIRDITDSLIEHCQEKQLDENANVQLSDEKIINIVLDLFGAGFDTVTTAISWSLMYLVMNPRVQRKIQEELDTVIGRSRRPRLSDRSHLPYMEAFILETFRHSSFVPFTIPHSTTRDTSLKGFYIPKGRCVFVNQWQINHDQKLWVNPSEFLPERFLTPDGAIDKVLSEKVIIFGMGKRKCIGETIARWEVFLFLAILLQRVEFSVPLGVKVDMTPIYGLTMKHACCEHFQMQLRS
# Procedure: as §5
compound,measurement,setting,value
"COc1c2occc2cc2ccc(=O)oc12 [8-MOP, 8-methoxypsoralen]",IC50 at 3 min,CYP1B1*3,0.326 µg/mL and 1.5 µM
same,IC50,CYP1B1*1,1710 nM and 1700 nM
same,IC50,CYP1B1*4,601 nM and 600 nM
same,IC50,"CYP1B1 [1]; 7-ethoxyresorufin at Km concentration, estimated",2000 ± 100 nM
same,Mode of inhibition of CYP1B1,"CYP1B1 [1]; Lineweaver-Burk plots, six 8-MOP and four 7-ethoxyresorufin concentrations",mixed inhibition
same,Ki,CYP1B1 [1]; n = 3,3580 ± 1000 nM
same,Cytotoxicity of 8-MOP alone (no UVA),"CHO-CPR cells; CHO-CPR cells, 8-MOP alone",not cytotoxic
same,IC50,"CHO-CPR cells; Cricetulus griseus, light or radiation study, read-out: IC50 for 8-MOP in the presence of UVA",0.54 µg/mL and 2.5 µM
same,Cytotoxicity of 8-MOP alone (no UVA),"CHO cells; CHO cells, 8-MOP 0–5 µM, dark",no significant cytotoxicity
same,IC50,"CHO cells; Cricetulus griseus, CHO, light or radiation study, read-out: IC50 for 8-MOP in the presence of UVA",0.461 µg/mL and 2.13 µM
O=c1cc(-c2ccccc2)oc2c1ccc1ccccc12 [α-naphthoflavone],8-MOP metabolism in presence of inhibitor,CYP1B1 [2],62 % of control levels
same,8-MOP metabolism in presence of inhibitor,human liver microsomes,59 % of control levels
same,8-MOP metabolism in presence of inhibitor,CYP1A1,53 % of control levels
